# Reference: patent US11072636B2, “Peptide for inhibiting angiogenesis and use thereof” (CAREGEN CO., LTD., priority 2017, dated 2021)
# What was measured:
# [1] = tested on: human umbilical vein endothelial cells (HUVEC); experiment: Inhibition of proliferation of vascular endothelial cells (MTT analysis); assay type: cell-based; conditions: VEGF 20 ng/ml, 1% serum, 3 days, MTT absorbance 560 nm, FIGS. 1 and 2
# Experimental: In order to confirm an effect of inhibiting the proliferation of vascular endothelial cells, the peptides prepared in Preparation Example 1 were treated to vascular endothelial cells, respectively, and then MTT analysis was performed.
# Specifically, human umbilical vein endothelial cells (HUVEC) were inoculated in a 96-well plate at a density of 4×10^3 cells/well and then incubated overnight. Thereafter, after the medium was changed to a medium added with 1% serum, a VEGF (20 ng/ml) and the peptide of the present invention were treated for each concentration, respectively, and incubated for 3 days. However, 2 μm of sunitinib was used as a positive control group.
# In addition, in order to confirm the effect of inhibiting the proliferation, 4 mg/ml of a thiozolyl blue tetrazolium bromide (MTT) solution was added to each well, formazan generated after reaction for 4 hours was dissolved by DMSO treatment, and then the absorbance was measured at a wavelength of 560 nm using a microplate reader. However, the measured absorbance values were shown by calculating relative rates based on an untreated control group.
# HUVEC cells = experiment: Inhibition of differentiation of vascular endothelial cells (tube formation assay); assay type: cell-based, human; conditions: VEGF 20 ng/ml, serum-free, 1 day, FIGS. 3 and 4
# Experimental: In order to confirm the effect of inhibiting the differentiation of vascular endothelial cells, the two peptides prepared in Preparation Example 1 were treated to the vascular endothelial cells, respectively, and then a tube formation assay was performed.
# Specifically, HUVEC cells were inoculated in a 96-well plate at a density of 1.5×10^3 cells/well and incubated overnight, and then the medium was replaced with serum-free media, and then a VEGF (20 ng/ml) and the peptide of the present invention were treated by concentration and incubated for 1 day. However, 2 μm of sunitinib was used as a positive control group. After the incubation was completed, the measurement of tube formation was visually observed using an optical microscope, and the number of nodules was measured together.
# VEGF receptor (VEGFR2) = experiment: Inhibition of cell signaling pathway induced by VEGF: phosphorylation of VEGFR2; assay type: cell-based; conditions: vascular endothelial cells; FIGS. 5 and 6
# Experimental: (§1) Further, in order to confirm the effect of inhibiting a cell signaling pathway induced by the VEGFs by the peptides of the present invention, in a specific exemplary embodiment of the present invention, a peptide having an amino acid sequence of SEQ ID NO: 1 or SEQ ID NO: 2 was treated to vascular endothelial cells and then changes in phosphorylation of a VEGF receptor (VEGFR2), ERK, AKT and p38 induced by the VEGF were confirmed.
# ERK = experiment: Inhibition of cell signaling pathway induced by VEGF: phosphorylation of ERK; assay type: cell-based; conditions: vascular endothelial cells; FIGS. 5 and 6
# Experimental: as §1
# AKT = experiment: Inhibition of cell signaling pathway induced by VEGF: phosphorylation of AKT; assay type: cell-based; conditions: vascular endothelial cells; FIGS. 5 and 6
# Experimental: as §1
# p38 = experiment: Inhibition of cell signaling pathway induced by VEGF: phosphorylation of p38; assay type: cell-based; conditions: vascular endothelial cells; FIGS. 5 and 6
# Experimental: as §1
# eNOS = experiment: Expression level of vascular endothelial cell migration marker eNOS; assay type: cell-based; conditions: vascular endothelial cells; FIGS. 7 and 8
# Source text: In addition, in order to confirm an effect of inhibiting the migration the vascular endothelial cells by the peptides of the present invention, in a specific exemplary embodiment of the present invention, a change in expression level of a vascular endothelial cell migration marker ‘eNOS’ was confirmed depending on treatment of the peptide having the amino acid sequence of SEQ ID NO: 1 or SEQ ID NO: 2 to the vascular endothelial cells.
# BAX protein = experiment: Expression level of pro-apoptotic BAX protein; assay type: cell-based; conditions: vascular endothelial cells, expression reduced by the VEGF; FIGS. 9 and 10
# VEGFR2 = VEGFR2 (Homo sapiens, UniProt P35968); experiment: Competitive binding to the VEGF receptor; conditions: FIGS. 11 to 14
# Chain of VEGFR2 (P35968 20-1356, species assumed): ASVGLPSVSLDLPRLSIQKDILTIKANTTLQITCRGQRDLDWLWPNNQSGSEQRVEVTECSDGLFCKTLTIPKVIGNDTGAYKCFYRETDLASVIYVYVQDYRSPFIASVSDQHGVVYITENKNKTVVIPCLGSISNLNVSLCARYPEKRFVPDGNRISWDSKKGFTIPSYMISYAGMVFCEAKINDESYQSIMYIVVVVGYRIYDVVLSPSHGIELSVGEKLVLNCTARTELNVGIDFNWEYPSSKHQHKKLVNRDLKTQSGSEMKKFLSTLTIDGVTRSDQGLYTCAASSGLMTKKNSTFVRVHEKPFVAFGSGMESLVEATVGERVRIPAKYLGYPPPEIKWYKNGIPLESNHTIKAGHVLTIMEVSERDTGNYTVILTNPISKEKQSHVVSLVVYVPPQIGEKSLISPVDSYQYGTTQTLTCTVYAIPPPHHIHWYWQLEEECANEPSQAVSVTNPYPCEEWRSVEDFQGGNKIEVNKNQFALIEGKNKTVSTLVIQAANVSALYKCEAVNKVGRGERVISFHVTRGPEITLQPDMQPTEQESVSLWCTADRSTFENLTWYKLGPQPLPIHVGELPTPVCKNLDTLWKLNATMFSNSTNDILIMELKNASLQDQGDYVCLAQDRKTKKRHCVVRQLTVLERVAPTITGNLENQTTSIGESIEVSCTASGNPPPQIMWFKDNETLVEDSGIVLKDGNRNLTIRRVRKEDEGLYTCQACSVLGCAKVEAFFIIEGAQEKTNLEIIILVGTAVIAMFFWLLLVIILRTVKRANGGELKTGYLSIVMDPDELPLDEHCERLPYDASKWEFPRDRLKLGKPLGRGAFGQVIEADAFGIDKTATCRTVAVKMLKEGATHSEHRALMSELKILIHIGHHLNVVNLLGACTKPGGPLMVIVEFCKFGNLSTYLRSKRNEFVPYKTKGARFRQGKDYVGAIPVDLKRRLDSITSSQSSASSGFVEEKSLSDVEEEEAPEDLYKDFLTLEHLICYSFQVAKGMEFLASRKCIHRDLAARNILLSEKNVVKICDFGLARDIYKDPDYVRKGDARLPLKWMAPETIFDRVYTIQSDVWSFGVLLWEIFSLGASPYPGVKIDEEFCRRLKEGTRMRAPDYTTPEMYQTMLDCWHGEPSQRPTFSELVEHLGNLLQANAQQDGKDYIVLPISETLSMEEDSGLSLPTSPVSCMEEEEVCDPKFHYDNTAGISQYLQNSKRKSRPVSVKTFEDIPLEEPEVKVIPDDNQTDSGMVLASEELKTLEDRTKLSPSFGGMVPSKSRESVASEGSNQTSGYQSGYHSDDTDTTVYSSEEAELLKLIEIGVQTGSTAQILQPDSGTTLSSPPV
Sequence,proliferation of vascular endothelial cells increased by the VEGF [1],differentiation (tube formation) of vascular endothelial cells (HUVEC cells),phosphorylation of VEGFR2 induced by the VEGF (VEGF receptor (VEGFR2)),phosphorylation of ERK induced by the VEGF (ERK),phosphorylation of AKT induced by the VEGF (AKT),phosphorylation of p38 induced by the VEGF (p38),eNOS expression increased by VEGF treatment (eNOS),expression of the BAX protein (BAX protein),binding to the VEGF receptor in competition with the VEGF (VEGFR2)
IHGTYKELL (Peptide 2) [SEQ ID NO: 2],reduced,reduced,significantly inhibited,significantly inhibited,significantly inhibited,significantly inhibited,decrease concentration-dependently,increased concentration-dependently,bind to a VEGFR2 competitively with the VEGF
NKNFGYDLYR (Peptide 1) [SEQ ID NO: 1],reduced,reduced,significantly inhibited,significantly inhibited,significantly inhibited,significantly inhibited,decrease concentration-dependently,increased concentration-dependently,bind to a VEGFR2 competitively with the VEGF
